Measurements taken from patent publication US10464911B2, “1,3,4-oxadiazole sulfamide derivative compounds as histone deacetylase 6 inhibitor, and the pharmaceutical composition comprising the same” (Chong Kun Dang Pharmaceutical Corp., priority 2015, dated 2019).

How the values were obtained:
human recombinant HDAC1 = human recombinant HDAC1 (Homo sapiens (Human), UniProt Q13547); experiment: HDAC1 enzyme activity inhibition assay (HDAC Fluorimetric Drug Discovery Kit); format: biochemical; settings: human recombinant HDAC1, Fluor de Lys substrate 10 μM, 60 minutes
human recombinant HDAC1, sequence (Q13547 whole entry): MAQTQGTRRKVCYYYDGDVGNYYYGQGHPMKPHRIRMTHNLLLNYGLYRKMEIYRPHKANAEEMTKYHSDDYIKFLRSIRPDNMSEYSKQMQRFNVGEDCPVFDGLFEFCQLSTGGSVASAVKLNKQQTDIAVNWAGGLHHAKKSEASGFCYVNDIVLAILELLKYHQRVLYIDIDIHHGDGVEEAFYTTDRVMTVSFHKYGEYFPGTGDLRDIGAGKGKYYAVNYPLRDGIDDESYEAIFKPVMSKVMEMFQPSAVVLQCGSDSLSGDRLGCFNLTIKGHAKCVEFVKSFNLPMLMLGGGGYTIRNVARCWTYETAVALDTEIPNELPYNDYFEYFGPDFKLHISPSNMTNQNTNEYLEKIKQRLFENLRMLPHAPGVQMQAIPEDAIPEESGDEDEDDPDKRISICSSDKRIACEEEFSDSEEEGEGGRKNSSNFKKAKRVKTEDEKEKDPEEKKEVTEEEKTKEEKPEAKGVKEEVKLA
Procedure: In order to examine the HDAC6 selectivity of the compounds of formula I of the present invention by HDAC1 and HDAC6 enzymatic activity inhibition assays, an experiment was performed using a conventional substance as a control.
HDAC enzyme activity was measured using a HDAC Fluorimetric Drug Discovery Kit (BML-AK511, 516, Enzo Life Science). For the HDAC1 enzyme activity test, human recombinant HDAC1 (BML-SE456) was used as an enzyme source, and Fluor de Lys®-“SIRT1 (BNL-KI177) was used as a substrate. A 5-fold dilution of the compound was seeded into a 96-well plate, and then 0.3 μg of the enzyme and 10 μM of the substrate were added to each well of the plate and allowed to react at 30 for 60 minutes. Then, Fluor de Lys®-Developer II (BML-KI176) was added thereto and allowed to react for 30 minutes, after which the fluorescence value (Ex 360, Em 460) was measured using a multi-plate reader (Flexstation 3, Molecular Device). The HDAC6 enzyme was tested using human recombinant HDAC6 (382180) (Calbiochem) according to the same protocol as the HDAC1 enzyme activity test method. Based on the resulting values, each IC50 value was calculated using GraphPad Prism4.0 program.

human recombinant HDAC6 = human recombinant HDAC6 (Homo sapiens (Human), UniProt Q9UBN7); experiment: HDAC6 enzyme activity inhibition assay (HDAC Fluorimetric Drug Discovery Kit); format: biochemical; settings: for HDAC6 selectivity (fold): HDAC6 versus HDAC1; for IC50: human recombinant HDAC6, same protocol as HDAC1 test
human recombinant HDAC6, sequence (Q9UBN7 whole entry): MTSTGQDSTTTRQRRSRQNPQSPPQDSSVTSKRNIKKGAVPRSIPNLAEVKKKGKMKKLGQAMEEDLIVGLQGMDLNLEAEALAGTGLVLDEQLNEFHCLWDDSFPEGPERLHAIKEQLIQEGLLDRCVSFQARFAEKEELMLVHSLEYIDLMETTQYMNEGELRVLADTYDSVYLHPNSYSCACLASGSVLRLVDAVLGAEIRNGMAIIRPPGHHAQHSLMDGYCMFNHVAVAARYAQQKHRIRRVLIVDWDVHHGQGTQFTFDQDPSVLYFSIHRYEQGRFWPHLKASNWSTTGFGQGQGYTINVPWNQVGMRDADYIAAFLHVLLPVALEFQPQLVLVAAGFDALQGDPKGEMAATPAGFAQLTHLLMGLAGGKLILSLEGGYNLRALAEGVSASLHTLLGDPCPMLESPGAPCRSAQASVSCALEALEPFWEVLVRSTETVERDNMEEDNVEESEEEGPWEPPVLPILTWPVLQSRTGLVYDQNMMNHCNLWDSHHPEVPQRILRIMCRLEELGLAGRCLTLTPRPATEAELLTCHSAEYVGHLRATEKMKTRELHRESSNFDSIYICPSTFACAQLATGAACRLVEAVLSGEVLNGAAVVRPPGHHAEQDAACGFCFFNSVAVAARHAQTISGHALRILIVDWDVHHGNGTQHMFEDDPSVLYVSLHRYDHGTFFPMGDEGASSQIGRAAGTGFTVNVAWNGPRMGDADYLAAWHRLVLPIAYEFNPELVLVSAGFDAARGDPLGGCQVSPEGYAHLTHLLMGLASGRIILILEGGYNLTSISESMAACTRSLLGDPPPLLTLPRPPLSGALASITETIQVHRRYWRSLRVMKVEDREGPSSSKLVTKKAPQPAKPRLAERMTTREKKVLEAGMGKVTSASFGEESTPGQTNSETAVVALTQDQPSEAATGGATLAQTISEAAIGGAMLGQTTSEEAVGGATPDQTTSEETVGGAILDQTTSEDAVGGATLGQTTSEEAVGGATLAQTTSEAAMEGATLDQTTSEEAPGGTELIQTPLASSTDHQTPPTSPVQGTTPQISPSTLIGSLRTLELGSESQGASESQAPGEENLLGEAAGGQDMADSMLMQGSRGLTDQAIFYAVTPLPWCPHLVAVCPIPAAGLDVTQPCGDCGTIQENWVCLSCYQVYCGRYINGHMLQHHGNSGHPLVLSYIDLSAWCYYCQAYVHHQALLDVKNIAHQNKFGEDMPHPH
In short: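 Recombinant human HDAC1 or HDAC6 (0.3 μg) reacted with 10 μM Fluor de Lys-SIRT1 substrate and 5-fold compound dilutions for 60 min at 30 °C, followed by 30 min developer. Fluorescence read at Ex 360/Em 460; IC50 calculated from the values.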

Compound	IC50 (human recombinant HDAC1) [µM]	HDAC6 selectivity (fold) (human recombinant HDAC6)	IC50 (human recombinant HDAC6) [µM]
C[C@@H]1CN(S(=O)(=O)N(Cc2ccc(-c3nnc(C(F)F)o3)cc2)c2cccnc2)C[C@H](C)N1C [Compound 11662, (3S,5R)—N-(4-(5-(difluoromethyl)-1,3,4-oxadiazol-2-yl)benzyl)-3,4,5-trimethyl-N-(pyridin-3-yl)piperazine-1-sulfonamide]	55.3	1182	0.047
CN1CCN(CCN(C)S(=O)(=O)N(Cc2ccc(-c3nnc(C(F)F)o3)cc2)c2ccccc2)CC1 [Compound 11702, 2-((4-(((N-methyl-N-(2-(4-methylpiperazin-1-yl)ethyl)sulfamoyl)(phenyl)amino)methyl))phenyl)-5-(difluoromethyl)-1,3,4-oxadiazole]	50.2	542	0.093
